From PMC9489722, “Identification and development of a subtype-selective allosteric AKT inhibitor suitable for clinical development” (Scientific Reports, 2022)
Read-outs that look alike come from different tables or passages of the source.

Tests used:
[1] = molecular target: T1, AKT1 (Homo sapiens, UniProt P31749); assay: AKT1 biochemical kinase assay (FP iMAP)
T1 construct: purchased Millipore
Experimental: (§1) Biochemical analysis was performed using kinases obtained from Millipore (AKT1, ∆AKT1, ∆AKT2, ∆AKT3) and Signal Chem (AKT2 and AKT3). […] (Molecular Devices) against the three isoforms of AKT and their PH domain null mutants. Compounds were dissolved in DMSO prior to screening at 14 point titration series in the range (50 µM–50 pM). Fluorescence polarisation was measured using a Biotek Synergy 4 Hybrid microplate reader. Percentage inhibition of kinase activity was calculated and IC50 values derived using non-linear regression on GraphPad Prism. Competition of ALM301 with ATP was determined using AKT1 under increasing ATP concentrations up to 1000 µM.

[2] = molecular target: T2, AKT2 (Homo sapiens, UniProt P31751); assay: AKT2 biochemical kinase assay (FP iMAP)
T2 construct: purchased Signal Chem
T2 sequence (P31751 whole entry): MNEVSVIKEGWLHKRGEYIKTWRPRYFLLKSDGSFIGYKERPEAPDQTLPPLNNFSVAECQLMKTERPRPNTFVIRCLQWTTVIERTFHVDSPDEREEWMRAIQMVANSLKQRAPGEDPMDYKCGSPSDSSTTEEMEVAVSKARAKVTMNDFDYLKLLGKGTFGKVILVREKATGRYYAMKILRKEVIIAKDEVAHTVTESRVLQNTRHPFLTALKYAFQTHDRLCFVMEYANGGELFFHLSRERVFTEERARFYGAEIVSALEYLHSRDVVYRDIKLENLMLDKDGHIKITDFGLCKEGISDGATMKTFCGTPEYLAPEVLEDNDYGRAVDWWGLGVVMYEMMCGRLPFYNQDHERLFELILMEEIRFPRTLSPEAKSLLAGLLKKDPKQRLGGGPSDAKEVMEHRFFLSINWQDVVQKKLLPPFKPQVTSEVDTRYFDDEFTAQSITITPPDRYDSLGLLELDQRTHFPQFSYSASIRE
Experimental: as §1

[3] = system: ∆AKT1; assay: PH domain null AKT1 biochemical kinase assay (FP iMAP)
Experimental: Biochemical analysis was performed using kinases obtained from Millipore (AKT1, ∆AKT1, ∆AKT2, ∆AKT3) and Signal Chem (AKT2 and AKT3). The specific activity of AKT 1,2 and 3 was determined to be 114 nmol/min/mg, 44 nmol/min/mg and 200 nmol/min/mg respectively as per activity assay protocol. ALM301 was profiled using the Fluorescent Polarisation (FP) iMAP Screening Express kit (Molecular Devices) using the FAM-Crosstide substrate [5FAM-[…]-OH] (Molecular Devices) against the three isoforms of AKT and their PH domain null mutants. Compounds were dissolved in DMSO prior to screening at 14 point titration series in the range (50 µM–50 pM). Fluorescence polarisation was measured using a Biotek Synergy 4 Hybrid microplate reader. Percentage inhibition of kinase activity was calculated and IC50 values derived using non-linear regression on GraphPad Prism. Competition of ALM301 with ATP was determined using AKT1 under increasing ATP concentrations up to 1000 µM.

[4] = In vitro microsomal stability, rat; assay type: in vitro ADME; details: pH 7.4; rat liver microsomes; read-out: rat LM CLint
Experimental: Compounds (final concentration = 1 µM; final DMSO concentration = 0.1%) were incubated in 0.1 M phosphate buffer at pH 7.4 with liver microsomes (human, mouse, rat or dog; 0.5 mg of protein/mL) at 37 °C. Reactions were started by addition of NADPH in 0.1 M phosphate buffer pH 7.4 (final concentration 1 mM). Reactions were quenched by addition of ice-cold methanol and frozen. The supernatants were analysed by LC/MS/MS on a Waters Acquity I-Class coupled to a Waters Xevo TQD mass spectrometer. A Waters BEH C18 2.1 × 50 mm 1.7 µm column was used and mobile phases consisted of water and methanol containing 0.1% formic acid as modifier. Analysis was by multiple reaction monitoring and conditions were optimised for each test compound.

[5] = molecular target: CYP 2D6 (Homo sapiens, UniProt P10635); assay: CYP2D6 inhibition; assay type: in vitro ADME
Chain of CYP 2D6 (P10635 whole entry): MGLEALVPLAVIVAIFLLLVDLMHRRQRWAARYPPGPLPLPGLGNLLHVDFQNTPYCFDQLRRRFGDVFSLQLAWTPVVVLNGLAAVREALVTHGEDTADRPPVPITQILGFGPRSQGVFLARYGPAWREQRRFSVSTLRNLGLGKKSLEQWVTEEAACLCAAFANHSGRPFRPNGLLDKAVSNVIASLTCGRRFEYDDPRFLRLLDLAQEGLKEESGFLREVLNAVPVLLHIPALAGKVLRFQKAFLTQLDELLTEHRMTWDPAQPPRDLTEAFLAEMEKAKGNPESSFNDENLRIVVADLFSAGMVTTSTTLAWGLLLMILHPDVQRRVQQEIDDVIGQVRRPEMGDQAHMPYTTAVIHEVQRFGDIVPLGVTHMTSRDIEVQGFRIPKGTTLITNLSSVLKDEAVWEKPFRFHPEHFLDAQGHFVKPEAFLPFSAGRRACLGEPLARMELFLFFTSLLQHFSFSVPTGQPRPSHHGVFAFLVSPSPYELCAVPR

[6] = molecular target: CYP 1A2 (Homo sapiens, UniProt P05177); assay: CYP1A2 inhibition; assay type: in vitro ADME
Chain of CYP 1A2 (P05177 whole entry): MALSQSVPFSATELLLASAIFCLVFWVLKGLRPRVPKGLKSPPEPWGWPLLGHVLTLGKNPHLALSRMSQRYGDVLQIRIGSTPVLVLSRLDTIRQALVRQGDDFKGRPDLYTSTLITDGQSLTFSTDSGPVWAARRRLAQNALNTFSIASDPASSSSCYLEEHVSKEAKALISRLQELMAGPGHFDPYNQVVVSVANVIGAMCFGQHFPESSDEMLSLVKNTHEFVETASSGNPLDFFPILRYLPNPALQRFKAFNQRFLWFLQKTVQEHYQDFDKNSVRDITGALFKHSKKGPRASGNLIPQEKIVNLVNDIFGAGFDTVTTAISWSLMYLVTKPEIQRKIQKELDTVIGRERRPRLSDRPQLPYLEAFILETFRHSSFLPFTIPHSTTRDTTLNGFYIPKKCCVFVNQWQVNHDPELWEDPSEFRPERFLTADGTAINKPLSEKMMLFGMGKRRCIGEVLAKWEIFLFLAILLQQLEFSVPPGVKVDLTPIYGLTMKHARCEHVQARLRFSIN

[7] = molecular target: CYP 2C19 (Homo sapiens, UniProt P33261); assay: CYP2C19 inhibition; assay type: in vitro ADME
Chain of CYP 2C19 (P33261 whole entry): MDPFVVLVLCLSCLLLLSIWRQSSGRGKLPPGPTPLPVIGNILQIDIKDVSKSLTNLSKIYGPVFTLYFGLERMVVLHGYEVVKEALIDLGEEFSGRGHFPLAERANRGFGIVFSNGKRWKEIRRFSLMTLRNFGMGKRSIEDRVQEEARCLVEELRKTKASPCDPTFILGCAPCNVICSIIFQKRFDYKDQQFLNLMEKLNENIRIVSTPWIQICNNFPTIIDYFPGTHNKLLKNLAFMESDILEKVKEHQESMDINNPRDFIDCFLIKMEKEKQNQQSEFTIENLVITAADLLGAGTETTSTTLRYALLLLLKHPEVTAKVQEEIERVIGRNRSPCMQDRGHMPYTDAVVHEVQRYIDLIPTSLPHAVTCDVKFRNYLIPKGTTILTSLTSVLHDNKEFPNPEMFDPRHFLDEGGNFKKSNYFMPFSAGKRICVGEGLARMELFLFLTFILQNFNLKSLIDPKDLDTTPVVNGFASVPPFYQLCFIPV

[8] = Pharmacokinetic study in Sprague–Dawley rats; assay type: in vivo, rat; details: male SD rats
Experimental: Eight rats were purchased and 6 used on the PK study (3 per administration route). The remaining rats were purchased in case of mis-dosing events and were used to obtain blank biological matrix. Compounds were administered as single i.v. doses at 1 mg free base/kg or single oral doses at 5 mg free base/kg, with blood samples obtained from three rats per dose route, at 9 time-points out to 24 h post-dose. Both the intravenous and oral doses were prepared at a concentration of 1 mg free base/mL in a mixture of 5% DMSO/95% saline. Blood samples were centrifuged to give plasma. Plasma proteins were precipitated, and compounds extracted by addition of six volumes of acetonitrile containing warfarin as internal standard. Samples were centrifuged at 4000 rpm for 30 min and the supernatants were analysed on a Waters Xevo TQ mass spectrometer. Multiple Reaction Monitoring (MRM) methods were developed for each test compound using Waters IntelliStart software.
Quantification of test compounds was by extrapolation from calibration lines prepared in control rat plasma and analysed concurrently with experimental samples.
Non-compartmental analysis was performed using the software package PK Solutions 2.0 from Summit Research Services to produce the PK parameters. AUC values were calculated by the trapezoidal method.
Oral bioavailability was estimated by comparison of the drug concentration/time AUCs for individual animals after oral dosing with the mean AUC from i.v. doses.

[9] = molecular target: PDK1 (Homo sapiens, UniProt O15530); assay: SelectScreen kinase selectivity profiling, PDK1; assay type: biochemical
Chain of PDK1 (O15530 whole entry): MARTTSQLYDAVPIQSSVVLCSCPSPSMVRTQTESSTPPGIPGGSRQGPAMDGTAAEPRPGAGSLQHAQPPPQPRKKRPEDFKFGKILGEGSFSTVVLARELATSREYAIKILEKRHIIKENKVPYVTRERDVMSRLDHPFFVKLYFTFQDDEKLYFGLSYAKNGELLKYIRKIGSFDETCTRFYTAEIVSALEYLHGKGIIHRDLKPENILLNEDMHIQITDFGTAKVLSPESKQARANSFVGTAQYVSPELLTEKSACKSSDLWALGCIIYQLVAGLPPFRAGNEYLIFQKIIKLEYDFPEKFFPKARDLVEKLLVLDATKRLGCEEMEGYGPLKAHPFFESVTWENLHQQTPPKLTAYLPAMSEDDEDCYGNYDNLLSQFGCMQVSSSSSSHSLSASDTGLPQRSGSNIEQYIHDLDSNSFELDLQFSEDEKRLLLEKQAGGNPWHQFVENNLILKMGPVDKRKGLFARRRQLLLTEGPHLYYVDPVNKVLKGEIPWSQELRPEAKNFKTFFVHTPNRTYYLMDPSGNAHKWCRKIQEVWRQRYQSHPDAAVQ
Experimental: Off-target kinase activity was performed using the SelectScreen kinase profiling service against either mini 50 kinase or full 450 kinase panels using the Z’lyte and Adapta kinase activity platforms (performed by Thermofisher).

[10] = system: pAKT (Ser473) in MCF-7 cells; assay: phospho-AKT (S473) ELISA in MCF-7 cells; assay type: cell-based; details: Homo sapiens, MCF7, 24h treatment, read-out: EC50 inhibition of phosphorylation of AKT
Experimental: Cells were then washed with PBS and lysed. The subsequent supernatant was assayed using a GSK3β (pS9) (Invitrogen, Life Technologies) ELISA. Phospho-AKT levels were detected using the phospho-AKT (S473) immunoassay (R&D Systems) as per manufacturer’s protocol. Percentage inhibition of phosphorylation status was calculated by comparing phospho-AKT levels to total AKT levels with each treatment and IC50 values derived using non-linear regression on GraphPad Prism.

[11] = system: pAKT in MCF-7 cells; assay: Western blot of pAKT and pGSK3β in MCF-7 cells; assay type: cell-based; details: 1 µM, observed from 1 h after treatment
Experimental: AKT inhibitor treated cell lysates were obtained using RIPA lysis buffer supplemented with protease and phosphatase inhibitor tablets (Roche). Protein samples (30 µg/lane) were run by SDS-PAGE and transferred to Hybond C extra nitrocellulose membranes (Amersham Biosciences) before incubation with the following primary antibodies; pAKT, total AKT, pGSK3β, total GSK3 β, p(Cell Signaling Technologies), Actin (Sigma) or Vinculin (Santa Cruz). Primary antibodies were diluted at 1:1000 (except Actin which was diluted 1:5000). Secondary antibodies were diluted 1:10,000. Blots were visualised using Amersham ECL plus western blot detection system (GE Healthcare) or Odyssey CLx system (LI-COR).

[12] = system: MCF-7 cells; assay: Clonogenic cell survival assay; assay type: cell-based; details: Homo sapiens, MCF7; MCF-7, concentration range 0.001–10 µM

T1 sequence (P31749 whole entry): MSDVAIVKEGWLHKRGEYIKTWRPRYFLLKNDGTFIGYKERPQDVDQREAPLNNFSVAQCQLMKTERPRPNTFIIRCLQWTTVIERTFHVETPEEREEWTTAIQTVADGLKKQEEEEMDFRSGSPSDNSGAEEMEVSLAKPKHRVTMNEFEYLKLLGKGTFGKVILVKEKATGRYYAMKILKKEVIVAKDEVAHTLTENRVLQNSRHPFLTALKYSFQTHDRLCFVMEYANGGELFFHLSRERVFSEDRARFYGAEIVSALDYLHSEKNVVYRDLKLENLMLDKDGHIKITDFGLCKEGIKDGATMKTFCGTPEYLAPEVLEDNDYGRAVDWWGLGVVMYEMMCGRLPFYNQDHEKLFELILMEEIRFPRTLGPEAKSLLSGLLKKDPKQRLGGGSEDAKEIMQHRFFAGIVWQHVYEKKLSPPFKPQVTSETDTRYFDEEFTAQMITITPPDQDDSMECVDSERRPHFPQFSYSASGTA

`CCN1C(=O)COc2nc(-c3ccc([C@]4(N)C[C@@H](O)C4)cc3)c(-c3ccccc3)cc21` [ALM301, 6-(4-((1S,3S)-1-amino-3-hydroxycyclobutyl)phenyl)-1-ethyl-7-phenyl-1H-pyrido[2,3-b][1,4]oxazin-2(3H)-one] showed an IC50 ([1]; ATP concentration 150 µM, read-out: IC50 vs. AKT1) of 121 nM, an IC50 ([1]; ATP concentration 500 µM, read-out: IC50 vs. AKT1) of 157 nM and an IC50 ([1]; ATP concentration 1000 µM, read-out: IC50 vs. AKT1) of 110 nM. The IC50 ([1]; full length AKT1, read-out: IC50 full length AKT1) was 125 nM, the IC50 ([1]; read-out: AKT IC50, AKT1) was 130 nM and the IC50 ([2]; full length AKT2, read-out: IC50 full length AKT2) was 95 nM. The IC50 ([2]; read-out: AKT IC50, AKT2) was 90 nM, the “inhibition of truncated AKT1 lacking PH domain” value [3] was “not inhibited” and the microsomal CLint at 1 µM [4] was 3 µL/min/mg. It also gave an IC50 [5] greater than 25000 nM, an IC50 [6] greater than 25000 nM and an IC50 [7] greater than 25000 nM. The clearance ([8]; Sprague-Dawley, rat, plasma, iv, 1 mg/kg i.v., read-out: Rat PK CL) was 19 mL/min/kg, the Vd ([8]; Sprague-Dawley, rat, plasma, iv, 1 mg/kg i.v., read-out: Rat PK Vd) was 13 L/kg and the “Rat PK F” value ([8]; 1 mg/kg i.v. and 5 mg/kg p.o., AUC 0-∞) was 26%. It also gave an IC50 ([9]; 10-point titration curve) greater than 10000 nM, an inhibition at 10 µM ([9]; read-out: % inhibition @ 10 µM, PDK1, 10 µM fixed concentration) of 77% and an EC50 [10] of 470 nM. The “inhibition of AKT phosphorylation (western blot)” value [11] was “sustained up to 48 h” and the IC50 [12] was 100 nM.
